pIC50: −log10 of the molar value. Where a name gives a salt, the structure may show the parent alone.
Legend:
[1] = system: Her2 receptor expression at the surface of SKBr3 cells; assay: phenotypic SKBr3/HER2 cell test (Her2 surface expression by flow cytometry); assay type: cell-based; conditions: Homo sapiens, SK-BR-3, 24 h incubation, inhibition of Her2 expression
Method in brief: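 SKBr3 cells (Her2-overexpressing adenocarcinoma) treated 24 h with compound at varying concentrations, then stained with PE-anti-Her2 antibody 30 min at 4° C; surface Her2 measured by flow cytometry. IC50 from nonlinear fit of % inhibition of Her2 expression versus concentration.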

Hsp82 = Hsp82 (Saccharomyces cerevisiae, UniProt P02829); assay: Hsp82/ATPase test (malachite green or PK/LDH coupled method); assay type: biochemical; conditions: 1 μM Hsp82, 250 μM ATP, 37° C.; read-out: Hsp82 ATPase IC50
Method: The biochemical activity of the compounds can in particular be evaluated by means of the “Hsp82/ATPase” test described below: The inorganic phosphate released during the hydrolysis of ATP by the ATPase activity of Hsp82 is quantified by the malachite green method. In the presence of this reagent, formation of the inorganic phosphate-molybdate-malachite green complex, which absorbs at a wavelength of 620 nm, occurs. The products to be evaluated are incubated in a reaction volume of 30 μl, in the presence of 1 μM Hsp82 and of 250 μM of substrate (ATP) in a buffer composed of 50 mM Hepes-NaOH (pH 7.5), 1 mM DTT, 5 mM MgCl2 and 50 mM KCl at 37° C. for 60 min. In parallel, an inorganic phosphate range of between 1 and 40 μM is made up in the same buffer. […] After incubation at ambient temperature for 20 min, the absorbance of the various wells is measured using a microplate reader at 620 nm. The inorganic phosphate concentration of each sample is then calculated from the standard curve. The ATPase activity of Hsp82 is expressed as concentration of inorganic phosphate produced in 60 minutes. The effect of the various products tested is expressed as percentage inhibition of the ATPase activity. The formation of ADP due to the ATPase activity of Hsp82 was used to develop another method for evaluating the enzyme activity of this enzyme by application of an enzymatic coupling system involving pyruvate kinase (PK) and lactate dehydrogenase (LDH). In this kinetic-type spectrophotometric method, PK catalyses the formation of ATP and of pyruvate from phosphoenol pyruvate (PEP) and the ADP produced by Hsp82. The pyruvate formed, which is a substrate for LDH, is subsequently converted to lactate in the presence of NADH. In this case, the decrease in the NADH concentration, measured through the decrease in absorbance at the wavelength of 340 nm, is proportional to the concentration of ADP produced by Hsp82. The products tested are incubated in a reaction volume of 100 μl of buffer composed of 100 mM Hepes-NaOH (pH 7.5), 5 mM MgCl2, 1 mM DTT, 150 mM KCl, 0.3 mM NADH, 2.5 mM PEP and 250 μM ATP. This mixture is preincubated at 37° C. for 30 minutes before the addition of 3.77 units of LDH and 3.77 units of PK. The reaction is initiated by addition of the product to be evaluated, in varying concentrations, and of Hsp82, at the concentration of 1 μM. The enzymatic activity of Hsp82 is then measured continuously, in a microplate reader, at 37° C., at the wavelength of 340 nm. The initial rate of the reaction is obtained by measuring the slope of the tangent to the origin of the curve recorded. The enzymatic activity is expressed in μM of ADP formed per minute. The effect of the various products tested is expressed as percentage inhibition of the ATPase activity according to the codification below: […]

Hsp82, sequence (P02829 whole entry): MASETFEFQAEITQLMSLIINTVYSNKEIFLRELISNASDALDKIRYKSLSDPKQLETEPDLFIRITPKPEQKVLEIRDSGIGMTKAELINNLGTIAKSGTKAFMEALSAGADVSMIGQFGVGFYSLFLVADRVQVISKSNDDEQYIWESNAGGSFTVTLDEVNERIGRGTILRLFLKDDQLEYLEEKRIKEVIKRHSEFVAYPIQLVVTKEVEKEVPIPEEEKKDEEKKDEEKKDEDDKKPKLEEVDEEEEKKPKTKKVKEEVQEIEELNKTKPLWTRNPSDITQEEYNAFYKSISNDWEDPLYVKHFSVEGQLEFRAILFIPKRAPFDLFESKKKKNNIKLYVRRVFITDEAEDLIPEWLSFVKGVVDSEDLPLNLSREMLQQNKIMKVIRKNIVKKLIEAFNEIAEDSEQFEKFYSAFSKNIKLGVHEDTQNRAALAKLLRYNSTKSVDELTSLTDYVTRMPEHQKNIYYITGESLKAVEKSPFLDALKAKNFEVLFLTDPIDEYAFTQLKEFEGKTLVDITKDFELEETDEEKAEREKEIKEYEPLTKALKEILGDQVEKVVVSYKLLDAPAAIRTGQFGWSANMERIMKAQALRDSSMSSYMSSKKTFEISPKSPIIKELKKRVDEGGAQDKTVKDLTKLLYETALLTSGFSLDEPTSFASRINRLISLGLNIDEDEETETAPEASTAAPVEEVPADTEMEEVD

Q: `CN(C)CCNc1cc(-n2c3ccccc3c3c(-c4nc5ccc(F)cc5[nH]4)cccc32)ccc1C(N)=O` [Example 43, 2-(2-dimethylaminoethylamino)-4-[4-(6-fluoro-1H-benzimidazol-2-yl)-9H-carbazol-9-yl]benzamide] was tested. Which pIC50 [1] did it give?
A: > 6.00

Q: And the pIC50 (Hsp82)?
A: > 6.00

Q: With `NC(=O)c1ccc(-n2c3ccccc3c3c(-c4nc5ccc(F)cc5[nH]4)cccc32)cc1NC1CCCCC1` [Example 6, 2-cyclohexylamino-4-[4-(6-fluoro-1H-benzimidazol-2-yl)-9H-carbazol-9-yl]benzamide] as the molecule, how does the pIC50 [1] read?
A: > 6.00

Q: And the pIC50 (Hsp82)?
A: 5.00 to 6.00

Q: Which results are given for `NC(=O)c1ccc(-n2c3ccccc3c3c(-c4nc5ccc(F)cc5[nH]4)cccc32)cc1N[C@H]1CC[C@H](O)CC1` [Example 1, 4-[4-(6-fluoro-1H-benzimidazol-2-yl)-9H-carbazol-9-yl]-2-(4-trans-hydroxycyclohexylamino)benzamide]?
A: pIC50 [1]: > 6.00; pIC50 (Hsp82): > 6.00

Q: What does the source list for `NC(=O)c1ccc(-n2c3ccccc3c3c(-c4nc5ccc(F)cc5[nH]4)cccc32)cc1NCCN1CCCC1` [Example 11, 4-[4-(6-fluoro-1H-benzimidazol-2-yl)-9H-carbazol-9-yl]-2-(2-pyrrolidin-1-ylethylamino)benzamide]?
A: pIC50 [1]: > 6.00; pIC50 (Hsp82): > 6.00

Q: Which results are given for `CC(C)(C)OC(=O)CC(=O)O[C@H]1CC[C@H](Nc2cc(-n3c4ccccc4c4c(-c5nc6ccc(F)cc6[nH]5)cccc43)ccc2C(N)=O)CC1` [Example 15, tert-butyl and 4-{2-carbamoyl-5-[4-(6-fluoro-1H-benzimidazol-2-yl)-9H-carbazol-9-yl]phenylamino}cyclohexyl ester of malonic acid]?
A: pIC50 [1]: > 6.00; pIC50 (Hsp82): 5.00 to 6.00

Q: What does the source list for `C[C@H](NC(=O)OC(C)(C)C)C(=O)O[C@H]1CC[C@H](Nc2cc(-n3c4ccccc4c4c(-c5nc6ccc(F)cc6[nH]5)cccc43)ccc2C(N)=O)CC1` [Example 22, 2(S)-tert-butoxycarbonylaminopropionic acid 4-trans-{2-carbamoyl-5-[4-(6-fluoro-1H-benzimidazol-2-yl)-9H-carbazol-9-yl]phenylamino}cyclohexyl ester]?
A: pIC50 [1]: > 6.00; pIC50 (Hsp82): 5.00 to 6.00

Q: `NC(=O)c1ncc(-n2c3ccccc3c3c(-c4cnc5ccccc5c4)cccc32)cc1N[C@H]1CC[C@H](O)CC1` [Example 58, 3-(4-trans-hydroxycyclohexylamino)-5-[(4-quinolin-3-yl)-9H-carbazol-9-yl]pyridine-2-carboxamide] was tested. Which pIC50 [1] did it give?
A: > 6.00

Q: And the pIC50 (Hsp82)?
A: > 6.00

Q: `CC(O)CCNc1cc(-n2c3ccccc3c3c(-c4nc5ccc(F)cc5[nH]4)cccc32)ccc1C(N)=O` (racemic) [Example 37, 4-[4-(6-fluoro-1H-benzimidazol-2-yl)-9H-carbazol-9-yl]-2-[3(R,S)hydroxybutylamino)benzamide] was tested. Which pIC50 [1] did it give?
A: > 6.00

Q: And the pIC50 (Hsp82)?
A: > 6.00

Q: Which results are given for `NC(=O)c1ccc(-n2c3ccccc3c3c(-c4nc5ccc(F)cc5[nH]4)cccc32)cc1N[C@H]1CC[C@@H](O)CC1` [Example 9, 4-[4-(6-fluoro-1H-benzimidazol-2-yl)-9H-carbazol-9-yl]-2-(4-cis-hydroxycyclohexylamino)benzamide]?
A: pIC50 [1]: > 6.00; pIC50 (Hsp82): 5.00 to 6.00

Q: What does the source list for `NC(=O)CCNc1cc(-n2c3ccccc3c3c(-c4nc5ccc(F)cc5[nH]4)cccc32)ccc1C(N)=O` [Example 47, 2-(2-carbamoylethylamino)-4-[4-(6-fluoro-1H-benzimidazol-2-yl)-9H-carbazol-9-yl]benzamide]?
A: pIC50 [1]: > 6.00; pIC50 (Hsp82): > 6.00

Q: How did the pIC50 [1] turn out when `CC(O)CCNc1cc(-n2c3ccccc3c3c(-c4cnc5ccccc5c4)cccc32)ccc1C(N)=O` (stereo not drawn) [Example 32, 2-(3-hydroxybutyl)amino-4-[4-(quinolin-3-yl)-9H-carbazol-9-yl]benzamide] was run?
A: > 6.00

Q: What about the pIC50 (Hsp82) of the same molecule?
A: > 6.00

Q: With `NC(=O)c1ccc(-n2c3ccccc3c3c(-c4nc5ccc(F)cc5[nH]4)cccc32)cc1F` [Example 14, 2-fluoro-4-[4-(6-fluoro-1H-benzimidazol-2-yl)-9H-carbazol-9-yl]benzamide] as the molecule, how does the pIC50 [1] read?
A: > 6.00

Q: And the pIC50 (Hsp82)?
A: 5.00 to 6.00

Q: `Nc1nn(CCO)c2cc(-n3c4ccccc4c4c(-c5nc6ccc(F)cc6[nH]5)cccc43)ccc12` [Example 16, 2-{3-amino-6-[4-(6-fluoro-1H-benzimidazol-2-yl)-9H-carbazol-9-yl]indazol-1-yl}ethanol] was tested. Which pIC50 [1] did it give?
A: 5.00 to 6.00

Q: What about the pIC50 (Hsp82) of the same molecule?
A: 5.00 to 6.00

Q: How did the pIC50 [1] turn out when `CC(CCO)Nc1cc(-n2c3ccccc3c3c(-c4nc5ccc(F)cc5[nH]4)cccc32)ccc1C(N)=O` (racemic) [Example 39] was run?
A: > 6.00

Q: And the pIC50 (Hsp82)?
A: > 6.00

Q: How did the pIC50 [1] turn out when `NCCC(=O)O[C@H]1CC[C@H](Nc2cc(-n3c4ccccc4c4c(-c5nc6ccc(F)cc6[nH]5)cccc43)ccc2C(N)=O)CC1` [Example 24, trifluoroacetate of the 4-trans-{2-carbamoyl-5-[4-(6-fluoro-1H-benzimidazol-2-yl)-9H-carbazol-9-yl]phenylamino}cyclohexyl ester of 3-aminopropionic acid] was run?
A: > 6.00

Q: What about the pIC50 (Hsp82) of the same molecule?
A: 5.00 to 6.00

Q: What does the source list for `NC(=O)c1ccc(-n2c3ccccc3c3c(-c4nc5ccc(F)cc5[nH]4)cccc32)cc1NCCO` [Example 42, 4-[4-(6-fluoro-1H-benzimidazol-2-yl)-9H-carbazol-9-yl]-2-(2-hydroxyethylamino)benzamide]?
A: pIC50 [1]: > 6.00; pIC50 (Hsp82): > 6.00

Q: How did the pIC50 [1] turn out when `CNC(=O)CNc1cc(-n2c3ccccc3c3c(-c4nc5ccc(F)cc5[nH]4)cccc32)ccc1C(N)=O` [Example 44, 4-[4-(6-fluoro-1H-benzimidazol-2-yl)-9H-carbazol-9-yl]-2-(methylcarbamoylmethylamino)benzamide] was run?
A: > 6.00

Q: What about the pIC50 (Hsp82) of the same molecule?
A: 5.00 to 6.00

Q: `Nc1n[nH]c2cc(-n3c4ccccc4c4c(-c5nc6ccc(F)cc6[nH]5)cccc43)ccc12` [Example 12, 6-[4-(6-fluoro-1H-benzimidazol-2-yl)-9H-carbazol-9-yl]-1H-indazol-3-ylamine] was tested. Which pIC50 [1] did it give?
A: 5.00 to 6.00

Q: What about the pIC50 (Hsp82) of the same molecule?
A: 5.00 to 6.00

Q: With `CC(CCO)Nc1cc(-n2c3ccccc3c3c(-c4cnc5ccccc5c4)cccc32)ccc1C(N)=O` (racemic) [Example 41, 2-[1-hydroxybutan-3(R,S)-ylamino]-4-[4-(quinolin-3-yl)-9H-carbazol-9-yl]benzamide] as the molecule, how does the pIC50 [1] read?
A: > 6.00

Q: And the pIC50 (Hsp82)?
A: > 6.00

Q: With `NC(=O)c1ccc(-n2c3ccccc3c3c(-c4nc5ccc(F)cc5[nH]4)cccc32)cc1NCc1c[nH]cn1` [Example 57, 4-[4-(6-fluoro-1H-benzimidazol-2-yl)-9H-carbazol-9-yl]-2-[(1H-imidazoly-4-yl)methylamino]benzamide] as the molecule, how does the pIC50 [1] read?
A: 5.00 to 6.00

Q: And the pIC50 (Hsp82)?
A: 5.00 to 6.00

Q: `NC(=O)c1ccc(-n2c3ccccc3c3c(-c4nc5ccc(F)cc5[nH]4)cccc32)cc1NCc1ccn[nH]1` [Example 51, 4-[4-(6-fluoro-1H-benzimidazol-2-yl)-9H-carbazol-9-yl]-2-[(2H-pyrazol-3-ylmethyl)amino]benzamide] was tested. Which pIC50 [1] did it give?
A: > 6.00

Q: And the pIC50 (Hsp82)?
A: 5.00 to 6.00

Q: `NC(=O)c1ccc(-n2c3ccccc3c3c(-c4cnc5ccccc5c4)cccc32)cc1NCCCO` [Example 31, 2-(3-hydroxypropyl)amino-4-[4-(quinolin-3-yl)-9H-carbazol-9-yl]benzamide] was tested. Which pIC50 [1] did it give?
A: > 6.00

Q: And the pIC50 (Hsp82)?
A: > 6.00

Q: With `NCC(CO)Oc1cc(-n2c3ccccc3c3c(-c4nc5ccc(F)cc5[nH]4)cccc32)ccc1C(N)=O` (stereo not drawn) [Example 53, 2-(2-amino-1-hydroxymethylethyloxy)-4-[4-(6-fluoro-1H-benzimidazol-2-yl)-9H-carbazol-9-yl]benzamide] as the molecule, how does the pIC50 [1] read?
A: 5.00 to 6.00

Q: And the pIC50 (Hsp82)?
A: 5.00 to 6.00

Q: What does the source list for `NC(=O)c1ccc(-n2c3ccccc3c3c(-c4ccc(CO)nc4)cccc32)cc1N[C@H]1CC[C@H](O)CC1` [Example 29, 2-[(4-trans-hydroxycyclohexyl)amino]-4-{4-[6-(hydroxymethyl)pyridin-3-yl]-9H-carbazol-9-yl}benzamide]?
A: pIC50 [1]: > 6.00; pIC50 (Hsp82): > 6.00

— US8309721B2, “HSP90 inhibitory carbazole derivatives, compositions containing same and use thereof” (Sanofi, priority 2008, dated 2012)
